Test results reported in ChEMBL document CHEMBL3885881, “DrugMatrix”.

Legend:
Rattus norvegicus [1] = species: Rattus norvegicus; assay: DrugMatrix - Regimen: Daily Repeat; type: toxicity, organism-based, Sprague-Dawley; design: regimen Daily Repeat, gender Male, age 6-8 weeks; details: in vivo, po, 500 mg/kg, route oral GAVAGE, dose level High, vehicle .5 % CMC; for ABSOLUTE BASOPHIL / ABSOLUTE EOSINOPHIL / ABSOLUTE LYMPHOCYTE / ABSOLUTE MONOCYTE / ABSOLUTE SEGMENTED NEUTROPHIL / BASOPHIL / EOSINOPHIL / ERYTHROCYTE COUNT / HEMATOCRIT / HEMOGLOBIN / LEUKOCYTE COUNT / LYMPHOCYTE / MEAN CORPUSCULAR HEMOGLOBIN / MEAN CORPUSCULAR HEMOGLOBIN CONCENTRATION / MEAN CORPUSCULAR VOLUME / MONOCYTE / NEUTROPHIL / NUCLEATED RED BLOOD CELLS / PLATELET COUNT: tissue Blood; for ALANINE AMINOTRANSFERASE / ALBUMIN / ALKALINE PHOSPHATASE / ASPARTATE AMINOTRANSFERASE / BLOOD UREA NITROGEN / CARBON DIOXIDE / CHLORIDE / CHOLESTEROL / CREATININE / GLUCOSE / LACTATE DEHYDROGENASE / LIPASE / PHOSPHORUS / POTASSIUM / SODIUM / TOTAL BILIRUBIN / TOTAL PROTEIN / URIC ACID: tissue Plasma
Rattus norvegicus [2] = species: Rattus norvegicus; type: toxicity, organism-based, Sprague-Dawley; details: in vivo, po, 500 mg/kg, 24 h, route oral GAVAGE, dose level High, time 1 day, vehicle .5 % CMC
Description: DrugMatrix - Regimen: Single

## Clc1ccccc1 [CHLOROBENZENE]
Rattus norvegicus [1]; 72 h, time 3 day
  ABSOLUTE BASOPHIL: 0 CELLS/uL
  ABSOLUTE EOSINOPHIL: 274.33 CELLS/uL
  ABSOLUTE LYMPHOCYTE: 9310 CELLS/uL
  ABSOLUTE MONOCYTE: 211.33 CELLS/uL
  ABSOLUTE SEGMENTED NEUTROPHIL: 771 CELLS/uL
  BASOPHIL: 0%
  EOSINOPHIL: 2.33%
  ERYTHROCYTE COUNT: 6.63 x10E6/uL
  HEMATOCRIT: 39.23%
  HEMOGLOBIN: 14.07 G/DL
  LEUKOCYTE COUNT: 10.57 x10E3/uL
  LYMPHOCYTE: 88.33%
  MEAN CORPUSCULAR HEMOGLOBIN: 21.2 pg
  MEAN CORPUSCULAR HEMOGLOBIN CONCENTRATION: 35.9 G/DL
  MEAN CORPUSCULAR VOLUME: 59.17 fL
  MONOCYTE: 2%
  NEUTROPHIL: 7.33%
  NUCLEATED RED BLOOD CELLS: 0 /100WBC
  PLATELET COUNT: 768.67 x10E3/uL
  ALANINE AMINOTRANSFERASE: 64 u/L
  ALBUMIN: 4.1 G/DL
  ALKALINE PHOSPHATASE: 361.67 u/L
  ASPARTATE AMINOTRANSFERASE: 100.33 u/L
  BLOOD UREA NITROGEN: 17.67 mg/dL
  CARBON DIOXIDE: 26.33 mmol/L
  CHLORIDE: 103.33 MEQ/L
  CHOLESTEROL: 86.67 mg/dL
  CREATININE: 0.21 mg/dL
  GLUCOSE: 184.33 mg/dL
  LACTATE DEHYDROGENASE: 325.33 u/L
  LIPASE: 9.67 u/L
  PHOSPHORUS: 14.17 mg/dL
  POTASSIUM: 5.77 MEQ/L
  SODIUM: 147.63 MEQ/L
  TOTAL BILIRUBIN: 0.17 mg/dL
  TOTAL PROTEIN: 5.83 G/DL
  URIC ACID: 2.13 mg/dL
Rattus norvegicus [1]; 120 h, time 5 day
  ABSOLUTE BASOPHIL: 0 CELLS/uL
  ABSOLUTE EOSINOPHIL: 83.67 CELLS/uL
  ABSOLUTE LYMPHOCYTE: 5790.33 CELLS/uL
  ABSOLUTE MONOCYTE: 83 CELLS/uL
  ABSOLUTE SEGMENTED NEUTROPHIL: 376.33 CELLS/uL
  BASOPHIL: 0%
  EOSINOPHIL: 1.33%
  ERYTHROCYTE COUNT: 6.34 x10E6/uL
  HEMATOCRIT: 37.73%
  HEMOGLOBIN: 13.57 G/DL
  LEUKOCYTE COUNT: 6.33 x10E3/uL
  LYMPHOCYTE: 91.33%
  MEAN CORPUSCULAR HEMOGLOBIN: 21.37 pg
  MEAN CORPUSCULAR HEMOGLOBIN CONCENTRATION: 35.9 G/DL
  MEAN CORPUSCULAR VOLUME: 59.6 fL
  MONOCYTE: 1.33%
  NEUTROPHIL: 6%
  NUCLEATED RED BLOOD CELLS: 0 /100WBC
  PLATELET COUNT: 998.67 x10E3/uL
  ALANINE AMINOTRANSFERASE: 58 u/L
  ALBUMIN: 4.13 G/DL
  ALKALINE PHOSPHATASE: 325 u/L
  ASPARTATE AMINOTRANSFERASE: 91 u/L
  BLOOD UREA NITROGEN: 16 mg/dL
  CARBON DIOXIDE: 31.67 mmol/L
  CHLORIDE: 102.67 MEQ/L
  CHOLESTEROL: 68 mg/dL
  CREATININE: 0.19 mg/dL
  GLUCOSE: 160.67 mg/dL
  LACTATE DEHYDROGENASE: 181.33 u/L
  LIPASE: 9.33 u/L
  PHOSPHORUS: 11.9 mg/dL
  POTASSIUM: 5.74 MEQ/L
  SODIUM: 150.1 MEQ/L
  TOTAL BILIRUBIN: 0.2 mg/dL
  TOTAL PROTEIN: 6.07 G/DL
  URIC ACID: 1.8 mg/dL
Rattus norvegicus [1]; […], time 14 day
  ABSOLUTE BASOPHIL: 0 CELLS/uL
  ABSOLUTE EOSINOPHIL: 209.6 CELLS/uL
  ABSOLUTE LYMPHOCYTE: 11694.6 CELLS/uL
  ABSOLUTE MONOCYTE: 390 CELLS/uL
  ABSOLUTE SEGMENTED NEUTROPHIL: 1365.8 CELLS/uL
  BASOPHIL: 0%
  EOSINOPHIL: 1.4%
  ERYTHROCYTE COUNT: 6.07 x10E6/uL
  HEMATOCRIT: 35.18%
  HEMOGLOBIN: 13 G/DL
  LEUKOCYTE COUNT: 13.86 x10E3/uL
  LYMPHOCYTE: 85.2%
  MEAN CORPUSCULAR HEMOGLOBIN: 21.48 pg
  MEAN CORPUSCULAR HEMOGLOBIN CONCENTRATION: 37 G/DL
  MEAN CORPUSCULAR VOLUME: 58.06 fL
  MONOCYTE: 3%
  NEUTROPHIL: 10.4%
  NUCLEATED RED BLOOD CELLS: 0 /100WBC
  PLATELET COUNT: 916.8 x10E3/uL
  ALANINE AMINOTRANSFERASE: 59 u/L
  ALBUMIN: 4.22 G/DL
  ALKALINE PHOSPHATASE: 464.4 u/L
  ASPARTATE AMINOTRANSFERASE: 88.8 u/L
  BLOOD UREA NITROGEN: 16 mg/dL
  CARBON DIOXIDE: 28.4 mmol/L
  CHLORIDE: 102.2 MEQ/L
  CHOLESTEROL: 70.2 mg/dL
  CREATININE: 0.16 mg/dL
  GLUCOSE: 130.8 mg/dL
  LACTATE DEHYDROGENASE: 283.8 u/L
  LIPASE: 10.2 u/L
  PHOSPHORUS: 11.26 mg/dL
  POTASSIUM: 6.64 MEQ/L
  SODIUM: 147.56 MEQ/L
  TOTAL BILIRUBIN: 0.28 mg/dL
  TOTAL PROTEIN: 6.16 G/DL
  URIC ACID: 1.56 mg/dL
Rattus norvegicus [2]; tissue Blood
  ABSOLUTE EOSINOPHIL: 0 CELLS/uL
  ABSOLUTE LYMPHOCYTE: 9295.67 CELLS/uL
  ABSOLUTE MONOCYTE: 616 CELLS/uL
  ABSOLUTE SEGMENTED NEUTROPHIL: 1621.67 CELLS/uL
  BASOPHIL: 0%
  EOSINOPHIL: 0%
  ERYTHROCYTE COUNT: 6.3 x10E6/uL
  HEMATOCRIT: 39.37%
  HEMOGLOBIN: 14.03 G/DL
  LEUKOCYTE COUNT: 11.53 x10E3/uL
  LYMPHOCYTE: 80.67%
  MEAN CORPUSCULAR HEMOGLOBIN: 22.3 pg
  MEAN CORPUSCULAR HEMOGLOBIN CONCENTRATION: 35.67 G/DL
  MEAN CORPUSCULAR VOLUME: 62.53 fL
  MONOCYTE: 5.33%
  NEUTROPHIL: 14%
  NUCLEATED RED BLOOD CELLS: 0 /100WBC
  PLATELET COUNT: 1230.33 x10E3/uL
Rattus norvegicus [2]; tissue Plasma
  ALANINE AMINOTRANSFERASE: 176 u/L
  ALBUMIN: 4.43 G/DL
  ALKALINE PHOSPHATASE: 416.33 u/L
  ASPARTATE AMINOTRANSFERASE: 280 u/L
  BLOOD UREA NITROGEN: 20 mg/dL
  CARBON DIOXIDE: 28.67 mmol/L
  CHLORIDE: 99.33 MEQ/L
  CHOLESTEROL: 69.67 mg/dL
  CREATININE: 0.23 mg/dL
  GLUCOSE: 154.33 mg/dL
  LACTATE DEHYDROGENASE: 419.67 u/L
  LIPASE: 10.67 u/L
  PHOSPHORUS: 12.9 mg/dL
  POTASSIUM: 5.56 MEQ/L
  SODIUM: 146.57 MEQ/L
  TOTAL BILIRUBIN: 0.23 mg/dL
  TOTAL PROTEIN: 6.53 G/DL
  URIC ACID: 1.4 mg/dL
